The values that follow come from ChEMBL document CHEMBL2073755, “TP-search Transporter Database” (Jpn Pharmacol Ther, 2001).

In data set [1] the target is T1, Solute carrier family 22 member 7 (Rattus norvegicus, UniProt Q5RLM2).
T1 sequence (Q5RLM2 whole entry): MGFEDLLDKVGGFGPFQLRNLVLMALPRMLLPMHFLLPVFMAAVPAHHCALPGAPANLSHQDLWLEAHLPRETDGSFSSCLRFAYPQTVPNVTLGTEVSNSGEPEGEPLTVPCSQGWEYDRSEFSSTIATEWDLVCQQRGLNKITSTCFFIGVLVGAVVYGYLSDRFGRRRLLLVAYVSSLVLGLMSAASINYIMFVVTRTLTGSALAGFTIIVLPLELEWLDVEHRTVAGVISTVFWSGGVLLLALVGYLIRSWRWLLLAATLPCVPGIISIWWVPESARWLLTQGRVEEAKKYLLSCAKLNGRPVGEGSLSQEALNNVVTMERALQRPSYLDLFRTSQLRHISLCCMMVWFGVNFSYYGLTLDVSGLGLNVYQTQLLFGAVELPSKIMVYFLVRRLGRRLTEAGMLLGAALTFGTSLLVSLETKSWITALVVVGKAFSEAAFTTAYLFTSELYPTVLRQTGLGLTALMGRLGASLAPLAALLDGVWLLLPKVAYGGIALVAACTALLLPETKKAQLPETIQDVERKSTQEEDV
In words: TP_TRANSPORTER: inhibition of Salicylate uptake in Oat2-expressing LLC PK1 cells. The format is functional, cell-based.

Data set [2] deals with T2, Oat2 (Solute carrier family 22 member 7) (Rattus norvegicus, UniProt Q5RLM2).
T2 sequence (Q5RLM2 whole entry): T1 sequence (Q5RLM2 whole entry)
The data set is described as follows: (§1) TP_TRANSPORTER: uptake in Oat2-expressing LLC PK1 cells. The format is functional, cell-based. Conditions: pig.

Substrate in data set [3]: Nc1ccn([C@H]2CC[C@@H](CO)O2)c(=O)n1
Described as §1. Format: functional, cell-based.

Substrate in data set [4]: O=C(O)c1ccccc1O
The data set is described as follows: cells, lysate or membranes named.

In turn, `CC(C(=O)O)c1cccc(C(=O)c2ccccc2)c1` (configuration not stated) [KETOPROFEN] yielded an inhibition constant Ki in data set [1] of 1840 nM. As to `COc1ccc(Cl)cc1C(=O)NCCc1ccc(S(=O)(=O)NC(=O)NC2CCCCC2)cc1` [GLYBURIDE], in data set [1], the inhibitory constant (Ki) came out at 12300 nM. For `COc1ccc2c(c1)c(CC(=O)O)c(C)n2C(=O)c1ccc(Cl)cc1` [INDOMETHACIN], the Michaelis constant (Km) in data set [2] was determined as 0.366 µM. As for `Cc1cn([C@H]2C[C@H](N=[N+]=[N-])[C@@H](CO)O2)c(=O)[nH]c1=O` [ZIDOVUDINE], the Km in data set [2] is 26 µM. On to `CC1(C)C(/C=C/C=C/C=C/C=C2\N(CCCCS(=O)(=O)O)c3ccc4ccccc4c3C2(C)C)=[N+](CCCCS(=O)(=O)[O-])c2ccc3ccccc3c21` [INDOCYANINE GREEN], for which the Ki in data set [1] turned out to be 1150 nM.

B1: Solute carrier family 22 member 7 (Rattus norvegicus) (protein)
chain: T1 sequence (Q5RLM2 whole entry)
Turning to B1, the Km came out at 3000 µM in data set [3] and 81.2 µM in data set [4].
